Assay results: ChEMBL document CHEMBL1201862, “PubChem BioAssay data set” (2004)
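These data come from cells grown in 96-well plates and exposed to compound for 48 hours at five concentrations. The concentration for 50% growth inhibition is given as GI50.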 Activity calls are given as the source filed them. No stated cut-off is given here; in the data, active = GI50 up to about 1.1 µM and inactive = higher.

Legend:
Assay in all cases: NCI anticancer screen, dose series, 48 h
[1] = tested on: EKVX
[2] = tested on: RXF 393
[3] = tested on: SK-MEL-28
[4] = tested on: A549
[5] = tested on: HT-29
[6] = tested on: SF-268
[7] = tested on: PC-3
[8] = tested on: 786-0
[9] = tested on: CCRF-CEM
[10] = tested on: OVCAR-8
[11] = tested on: TK-10
[12] = tested on: U-251
[13] = tested on: MDA-MB-435
[14] = tested on: OVCAR-5
[15] = tested on: COLO 205
[16] = tested on: Malme-3M
[17] = tested on: SK-OV-3
[18] = tested on: HOP-92
[19] = tested on: OVCAR-3
[20] = tested on: RPMI-8226

Row | Compound | GI50 [1] | GI50 [2] | GI50 [3] | GI50 [4] | GI50 [5] | GI50 [6] | GI50 [7] | GI50 [8] | GI50 [9] | GI50 [10] | GI50 [11] | GI50 [12] | GI50 [13] | GI50 [14] | GI50 [15] | GI50 [16] | GI50 [17] | GI50 [18] | GI50 [19] | GI50 [20]
1 | O=c1oc2cc(/N=C/c3ccc4c(c3)OCO4)ccc2c2ccccc12 | 3.66 µM (inactive) | 19.2 µM (inactive) | > 100 µM (inactive) | > 100 µM (inactive) | 50.9 µM (inactive) | 61 µM (inactive) | > 100 µM (inactive) | 35 µM (inactive) | 50.4 µM (inactive) | 42.5 µM (inactive) | 41.4 µM (inactive) | 43.1 µM (inactive) | > 100 µM (inactive) | > 100 µM (inactive) | 56.6 µM (inactive) | > 100 µM (inactive) | 34.1 µM (inactive) | > 100 µM (inactive) | > 100 µM (inactive) | 
2 | Cc1ccc2c(c1)CC1(Cc3cc(C)ccc3C1=O)C2=O | > 100 µM (inactive) | > 100 µM (inactive) | > 100 µM (inactive) | > 100 µM (inactive) | > 100 µM (inactive) | > 100 µM (inactive) | > 100 µM (inactive) | > 100 µM (inactive) | > 100 µM (inactive) | > 100 µM (inactive) | > 100 µM (inactive) | > 100 µM (inactive) | > 100 µM (inactive) | > 100 µM (inactive) |  | > 100 µM (inactive) | > 100 µM (inactive) | > 100 µM (inactive) | > 100 µM (inactive) | > 100 µM (inactive)
3 | O=C(NCCCl)NCc1ccccc1 | > 100 µM (inactive) | > 100 µM (inactive) | > 100 µM (inactive) | > 100 µM (inactive) | > 100 µM (inactive) | > 100 µM (inactive) | > 100 µM (inactive) | > 100 µM (inactive) | > 100 µM (inactive) | > 100 µM (inactive) |  | > 100 µM (inactive) | > 100 µM (inactive) | > 100 µM (inactive) | > 100 µM (inactive) | > 100 µM (inactive) | > 100 µM (inactive) | > 100 µM (inactive) | > 100 µM (inactive) | > 100 µM (inactive)
4 | C#CC1=CC(=O)C(OC)=CC1=O | 23.3 µM (inactive) | 15.2 µM (inactive) | 37.2 µM (inactive) | 33.9 µM (inactive) | 23.3 µM (inactive) | 43.4 µM (inactive) | 53.2 µM (inactive) | 3.01 µM (inactive) | 7.36 µM (inactive) |  | 48.6 µM (inactive) | 31.9 µM (inactive) | 18.1 µM (inactive) | 33.5 µM (inactive) | 27 µM (inactive) | 25.9 µM (inactive) | > 100 µM (inactive) | 15.6 µM (inactive) | 33.5 µM (inactive) | 17.8 µM (inactive)
5 | COC(=O)/C=C(\C)C(=O)N(C)c1ccccc1I | > 100 µM (inactive) | > 100 µM (inactive) | > 100 µM (inactive) | > 100 µM (inactive) |  | > 100 µM (inactive) | > 100 µM (inactive) | > 100 µM (inactive) | > 100 µM (inactive) | > 100 µM (inactive) |  | > 100 µM (inactive) | > 100 µM (inactive) | > 100 µM (inactive) | > 100 µM (inactive) | > 100 µM (inactive) | > 100 µM (inactive) | > 100 µM (inactive) | > 100 µM (inactive) | > 100 µM (inactive)
6 | CC(=O)O[C@H]1C(=O)[C@@]2(C)[C@H]([C@H](OC(=O)c3ccccc3)[C@]3(O)C[C@H](OC(=O)[C@H](OC(=O)OCCC(O)CO)[C@@H](NC(=O)c4ccccc4)c4ccccc4)C(C)=C1C3(C)C)[C@]1(OC(C)=O)CO[C@@H]1C[C@@H]2O (some centres not stated) | 0.037 µM (active) | < 0.037 µM (active) |  | < 0.0103 µM (active) | < 0.01 µM (active) | < 0.0111 µM (active) | < 0.0128 µM (active) | 0.0105 µM (active) | < 0.01 µM (active) | < 0.0221 µM (active) | 0.998 µM (active) | < 0.01 µM (active) | < 0.01 µM (active) | < 0.016 µM (active) | < 0.01 µM (active) |  | 0.0104 µM (active) | 12.8 µM (inactive) | < 0.01 µM (active) | < 0.01 µM (active)
7 | CCSc1cc2c(cc1O)CC[C@@H]1[C@@H]2CC[C@]2(C)[C@@H](O)CC[C@@H]12 |  | 21.5 µM (inactive) | 14.2 µM (inactive) | 4.3 µM (inactive) | 10.8 µM (inactive) | 29 µM (inactive) | 5.71 µM (inactive) | 12.2 µM (inactive) | 10.1 µM (inactive) | 13.3 µM (inactive) | 27.1 µM (inactive) | 12.6 µM (inactive) | 1.98 µM (inactive) | 23 µM (inactive) | 18.3 µM (inactive) | 11.2 µM (inactive) | 17.8 µM (inactive) | 8.77 µM (inactive) |  | 8.17 µM (inactive)
8 | C[C@@H]1OC(=O)C[C@H]2CC(=O)N(CCC3CN(S(=O)(=O)C(F)(F)F)c4ccc(Cc5ccc6c(c5)C(CCN5C[C@H]7[C@@H](CC(=O)O[C@H]7C)CC5=O)CN6S(=O)(=O)C(F)(F)F)cc43)C[C@@H]21 (some centres not stated) | > 100 µM (inactive) | > 100 µM (inactive) | > 100 µM (inactive) | > 100 µM (inactive) |  | > 100 µM (inactive) | > 100 µM (inactive) | > 100 µM (inactive) | > 100 µM (inactive) | > 100 µM (inactive) | > 100 µM (inactive) | > 100 µM (inactive) | > 100 µM (inactive) | > 100 µM (inactive) | > 100 µM (inactive) | > 100 µM (inactive) | > 100 µM (inactive) | > 100 µM (inactive) | > 100 µM (inactive) | > 100 µM (inactive)
9 | O=c1c2cc(S(=O)(=O)Nc3ccc(Cl)cc3Cl)ccc2ncn1NS(=O)(=O)c1cccc2ccccc12 | 14.7 µM (inactive) |  | 99.5 µM (inactive) | 36.9 µM (inactive) | 32 µM (inactive) | 30.3 µM (inactive) | 23.7 µM (inactive) | 42 µM (inactive) | 12.7 µM (inactive) | 52.2 µM (inactive) | 85.7 µM (inactive) | 58.2 µM (inactive) | 58.9 µM (inactive) | 61.5 µM (inactive) | 43.7 µM (inactive) | > 100 µM (inactive) | 66.8 µM (inactive) | 16.2 µM (inactive) | 33.9 µM (inactive) | 21.1 µM (inactive)
10 | Cn1[nH]nn/c1=N\N=C\c1ccccc1 | 2.9 µM (inactive) | > 10 µM (inactive) | > 10 µM (inactive) | > 10 µM (inactive) | > 10 µM (inactive) | > 10 µM (inactive) | > 10 µM (inactive) | > 10 µM (inactive) | > 10 µM (inactive) | > 10 µM (inactive) | > 10 µM (inactive) | > 10 µM (inactive) | > 10 µM (inactive) | > 10 µM (inactive) | > 10 µM (inactive) |  | > 10 µM (inactive) | > 10 µM (inactive) | > 10 µM (inactive) | > 10 µM (inactive)
